Measured values: patent publication US20180008688A1, “METHOD AND COMPOSITIONS FOR ENHANCING IMMUNOTHERAPEUTIC TREATMENT OF A CANCER” (Augusta University Research Institute, Inc., priority 2016, published 2018)
Read-outs that look alike come from different tables or passages of the source.

Key:
[1] = system: B16F10 tumors; assay type: in vivo; settings: for anti-tumor effect: nutlin-3a added to CTX/VO-OHpic, FIG. 8B
Method: In vivo tumor studies: The B16F10 and E.G7 (EL4-OVA) cell lines were obtained from ATCC. B16-OVA (B16F10 transfected with full-length chicken ovalbumin) clone MO4 was according to Falo et al. ((1995) Nat. Med. 1: 649-653). B16F10 cells expressing EGFP protein (B16-GFP cells) were derived using lentiviral transfection. Tumor implantation was performed as described (Sharma et al., (2007) J. Clin. Invest. 117: 2570-2582), using 1×10^5 cells for B16F10 and 1×10^6 cells for other cell lines (large inocula were used to ensure rapid tumor engraftment and immune suppression). […] Tumor volume was calculated from orthogonal diameters using the formula V=L×W^2×π/6. Mice received approved euthanasia when tumors reached a size of 300 mm^2 (product of orthogonal diameters); death was never used a planned endpoint in any study.
Tumor implantation was performed as described (Sharma et al., (2007) J. Clin. Invest. 117: 2570-2582). VO-OHpic was given at 10 mg/kg/day i.p., in 10% DMSO/PBS. Cyclophosphamide was given at 150 mg/kg i.p×1 dose; and oxaliplatin at 5 mg/kg i.p×1 dose. Nutlin-3a was administered daily at 10 mg/kg/day i.p. For checkpoint blockade, mice received anti-CTLA-4 plus a cocktail of antibodies against the PD-1 pathway. Vaccines and T cell adoptive transfer studies were performed as described (Sharma et al., (2015) Sci. Advances. 1: e1500845).
VO-OHpic/CTX, nutlin-3a, oxaliplatin and immunotherapy regimens: The vanadate compound VO-OHpic (Mak et al., (2010) J. Chem. Biol. 3: 157-163) inhibits PTEN activity, and this drug was used to destabilize PTEN+Tregs during chemotherapy. Like all of the available PTEN-inhibitors, VO-OHpic can also affect other phosphatases (Spinelli et al., (2015) Adv. Biol. Regul. 57: 102-111).
VO-OHpic was given at 10 mg/kg/day i.p., in 10% DMSO/PBS. Cyclophosphamide was given at 150 mg/kg i.p×1 dose. Oxaliplatin was given at 5 mg/kg i.p×1 dose. […] For checkpoint blockade, mice received anti-CTLA-4 (clone 9D9, BioXcell) plus a cocktail of antibodies against the PD-1 pathway: anti-PD-L2, clone TY25 (Yamazaki et al., (2002) J. Immunol. 169: 5538-5545); anti-PD-1, clone J43 (Agata et al., (1996) Int. Immunol. 8: 765-772); and anti-PD-L1, clone MIH7 (Tsushima et al., (2003) Eur. J. Immunol. 33: 2773-2782). A cocktail was used in order to block the PD-1 pathway as completely as possible and thus minimize any peculiarities of a single blocking antibody.

[2] = system: OT-I T cells; test: Autoimmune diabetes in RIP-mOVA mice after OT-I T cell transfer (no tumor); assay type: in vivo, mouse
Method: Accordingly and without wishing to be bound by any one hypothesis, it is likely that p53 can play two different immunologic roles, depending on the context (tumor versus normal tissues). […] Following T cell transfer, these mice progressively developed lethal autoimmune diabetes. However, if mice were treated with nutlin-3a diabetes formation was suppressed and the mice remained healthy.

[3] = nutlin-3a added to VO-OHpic+CTX

For `COc1ccc(C2=NC(c3ccc(Cl)cc3)C(c3ccc(Cl)cc3)N2C(=O)N2CCNC(=O)C2)c(OC(C)C)c1` (single isomer, unassigned; (-)) [nutlin-3a, (−)-4-(4,5-Bis(4-chlorophenyl)-2-(2-isopropoxy-4-methoxyphenyl)-4,5-dihydro-1H-imidazole-1-carbonyl)piperazin-2-one], the anti-tumor effect [1] was “maintained a prolonged anti-tumor response”, the anti-tumor effect ([1]; listed as Nutlin-3a) was “markedly prolonged and maintained the anti-tumor effect” and the “Ly6c+CD103+ dendritic cells in tumors” value [1, 3] was “large population”. The “phospho-p53-Ser15 in dendritic cells” value [1, 3] was “sustained elevation”, the “level of p53 in OT-I cells in pancreatic LNs” value ([2]; mouse, in vivo) was “increased” and the diabetes formation ([2]; nutlin-3a treatment after OT-I transfer) was “suppressed”. The “expression of granzyme B in OT-I cells” value ([2]; pancreatic LNs) was “decreasing”.
